From publication PMC3914206

How the values were obtained:
Assay type in all cases: binding
Settings in all cases: Compound Concentration 10 µM
[1] = target: T1, panel of 442 kinases (Homo sapiens, UniProt P00533)
T1 construct: purchased KINOMEscan
Excerpt: (§1) We assessed the selectivity of members of this scaffold using the KINOMEscan methodology across a near comprehensive panel of 442 kinases [[18,27]].

[2] = target: T2, panel of 442 kinases (Homo sapiens, UniProt P16234)
T2 construct: purchased KINOMEscan
Excerpt: as §1

[3] = target: T3, panel of 442 kinases (Homo sapiens, UniProt P51957)
T3 construct: purchased KINOMEscan
Excerpt: as §1

[4] = target: T4, panel of 442 kinases (Homo sapiens, UniProt Q04912)
T4 construct: purchased KINOMEscan
Excerpt: as §1

T1 sequence (P00533 25-1210): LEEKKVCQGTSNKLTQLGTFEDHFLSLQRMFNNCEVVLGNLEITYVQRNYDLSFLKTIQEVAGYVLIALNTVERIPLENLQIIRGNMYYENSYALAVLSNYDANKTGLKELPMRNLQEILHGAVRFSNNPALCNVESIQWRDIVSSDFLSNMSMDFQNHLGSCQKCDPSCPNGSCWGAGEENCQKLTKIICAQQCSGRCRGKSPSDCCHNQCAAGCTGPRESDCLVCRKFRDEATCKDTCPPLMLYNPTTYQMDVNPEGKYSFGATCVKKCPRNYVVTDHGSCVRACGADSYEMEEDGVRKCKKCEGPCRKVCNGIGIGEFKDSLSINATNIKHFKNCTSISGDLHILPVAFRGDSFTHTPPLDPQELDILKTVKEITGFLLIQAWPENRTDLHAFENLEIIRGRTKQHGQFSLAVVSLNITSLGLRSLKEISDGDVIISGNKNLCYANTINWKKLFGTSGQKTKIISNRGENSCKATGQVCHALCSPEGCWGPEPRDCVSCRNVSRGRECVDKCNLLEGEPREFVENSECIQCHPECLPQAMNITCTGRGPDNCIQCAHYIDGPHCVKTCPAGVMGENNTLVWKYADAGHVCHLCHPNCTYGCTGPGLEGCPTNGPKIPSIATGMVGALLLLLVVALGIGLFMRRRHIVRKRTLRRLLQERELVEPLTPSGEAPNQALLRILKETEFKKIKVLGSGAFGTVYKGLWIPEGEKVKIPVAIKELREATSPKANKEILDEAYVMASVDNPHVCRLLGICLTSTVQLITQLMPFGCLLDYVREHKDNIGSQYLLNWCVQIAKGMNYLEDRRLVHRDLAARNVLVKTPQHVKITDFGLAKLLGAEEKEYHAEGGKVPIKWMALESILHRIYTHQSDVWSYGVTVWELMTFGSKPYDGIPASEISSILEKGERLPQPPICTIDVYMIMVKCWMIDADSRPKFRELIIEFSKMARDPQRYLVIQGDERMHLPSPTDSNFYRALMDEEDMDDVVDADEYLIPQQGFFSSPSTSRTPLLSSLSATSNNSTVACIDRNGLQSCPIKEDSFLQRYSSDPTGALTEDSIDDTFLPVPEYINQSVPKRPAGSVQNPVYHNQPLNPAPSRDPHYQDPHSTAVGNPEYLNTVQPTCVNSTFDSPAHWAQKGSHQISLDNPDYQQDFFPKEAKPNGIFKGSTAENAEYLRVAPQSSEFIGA
T4 sequence (Q04912 25-1400): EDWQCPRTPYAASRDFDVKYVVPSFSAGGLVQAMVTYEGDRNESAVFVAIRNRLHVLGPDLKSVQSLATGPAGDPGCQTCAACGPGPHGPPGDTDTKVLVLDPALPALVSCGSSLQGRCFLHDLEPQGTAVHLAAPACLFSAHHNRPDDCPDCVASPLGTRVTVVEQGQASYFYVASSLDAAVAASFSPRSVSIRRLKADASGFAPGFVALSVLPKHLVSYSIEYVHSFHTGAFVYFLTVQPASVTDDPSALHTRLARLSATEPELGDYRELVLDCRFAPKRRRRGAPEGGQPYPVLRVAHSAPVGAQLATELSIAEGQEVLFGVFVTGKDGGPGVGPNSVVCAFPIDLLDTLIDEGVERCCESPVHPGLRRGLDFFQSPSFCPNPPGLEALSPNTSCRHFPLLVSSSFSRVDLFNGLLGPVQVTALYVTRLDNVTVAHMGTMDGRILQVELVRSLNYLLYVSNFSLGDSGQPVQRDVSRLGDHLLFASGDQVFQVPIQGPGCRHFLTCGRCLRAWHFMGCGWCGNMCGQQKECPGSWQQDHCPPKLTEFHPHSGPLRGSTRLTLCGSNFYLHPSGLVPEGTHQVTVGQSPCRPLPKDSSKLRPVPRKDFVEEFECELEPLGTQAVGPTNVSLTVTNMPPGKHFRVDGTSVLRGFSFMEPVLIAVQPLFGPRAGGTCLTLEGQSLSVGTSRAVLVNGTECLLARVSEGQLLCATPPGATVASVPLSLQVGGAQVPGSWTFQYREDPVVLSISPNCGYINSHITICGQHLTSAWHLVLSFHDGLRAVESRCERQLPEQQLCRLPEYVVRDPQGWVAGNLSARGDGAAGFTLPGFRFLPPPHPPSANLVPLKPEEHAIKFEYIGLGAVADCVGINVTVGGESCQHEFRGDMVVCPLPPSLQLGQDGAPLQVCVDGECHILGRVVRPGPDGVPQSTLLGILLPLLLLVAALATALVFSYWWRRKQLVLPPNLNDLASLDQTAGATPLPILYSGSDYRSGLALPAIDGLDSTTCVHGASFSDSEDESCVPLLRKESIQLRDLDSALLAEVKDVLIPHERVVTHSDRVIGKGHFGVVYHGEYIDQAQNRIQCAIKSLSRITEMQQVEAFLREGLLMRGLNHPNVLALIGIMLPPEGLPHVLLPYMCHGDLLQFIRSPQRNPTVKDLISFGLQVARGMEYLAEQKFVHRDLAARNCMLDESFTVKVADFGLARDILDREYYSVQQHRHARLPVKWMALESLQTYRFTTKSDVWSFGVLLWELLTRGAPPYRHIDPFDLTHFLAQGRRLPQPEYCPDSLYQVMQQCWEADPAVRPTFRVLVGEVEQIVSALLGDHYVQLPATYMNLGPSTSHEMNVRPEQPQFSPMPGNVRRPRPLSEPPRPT
T2 sequence (P16234 24-1089): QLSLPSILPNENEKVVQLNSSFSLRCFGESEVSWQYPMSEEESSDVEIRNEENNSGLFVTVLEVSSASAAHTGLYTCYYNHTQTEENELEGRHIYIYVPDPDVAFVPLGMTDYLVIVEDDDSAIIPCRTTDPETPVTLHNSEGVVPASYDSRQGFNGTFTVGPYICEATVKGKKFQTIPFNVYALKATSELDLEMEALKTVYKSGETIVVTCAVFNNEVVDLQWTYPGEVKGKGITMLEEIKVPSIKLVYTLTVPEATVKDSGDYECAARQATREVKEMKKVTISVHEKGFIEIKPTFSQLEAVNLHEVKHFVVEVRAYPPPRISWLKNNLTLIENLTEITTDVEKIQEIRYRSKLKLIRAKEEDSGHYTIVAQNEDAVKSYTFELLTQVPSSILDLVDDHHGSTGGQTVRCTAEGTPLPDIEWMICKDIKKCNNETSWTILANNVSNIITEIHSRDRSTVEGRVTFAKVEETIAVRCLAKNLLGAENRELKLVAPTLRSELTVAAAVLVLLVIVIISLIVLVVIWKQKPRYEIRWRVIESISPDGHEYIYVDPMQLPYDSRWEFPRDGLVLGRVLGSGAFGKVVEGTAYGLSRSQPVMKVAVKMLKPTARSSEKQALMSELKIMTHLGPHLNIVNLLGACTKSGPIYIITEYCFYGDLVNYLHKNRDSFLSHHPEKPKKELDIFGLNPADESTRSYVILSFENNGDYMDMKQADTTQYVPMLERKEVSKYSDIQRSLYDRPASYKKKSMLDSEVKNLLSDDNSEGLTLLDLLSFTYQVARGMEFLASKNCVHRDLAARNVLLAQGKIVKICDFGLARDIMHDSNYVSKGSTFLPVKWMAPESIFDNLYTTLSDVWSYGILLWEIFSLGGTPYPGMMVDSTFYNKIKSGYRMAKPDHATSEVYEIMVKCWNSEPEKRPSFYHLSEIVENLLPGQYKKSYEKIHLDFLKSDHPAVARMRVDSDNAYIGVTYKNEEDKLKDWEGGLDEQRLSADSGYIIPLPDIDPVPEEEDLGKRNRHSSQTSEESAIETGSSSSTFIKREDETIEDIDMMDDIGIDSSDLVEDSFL
T3 sequence (P51957 whole entry): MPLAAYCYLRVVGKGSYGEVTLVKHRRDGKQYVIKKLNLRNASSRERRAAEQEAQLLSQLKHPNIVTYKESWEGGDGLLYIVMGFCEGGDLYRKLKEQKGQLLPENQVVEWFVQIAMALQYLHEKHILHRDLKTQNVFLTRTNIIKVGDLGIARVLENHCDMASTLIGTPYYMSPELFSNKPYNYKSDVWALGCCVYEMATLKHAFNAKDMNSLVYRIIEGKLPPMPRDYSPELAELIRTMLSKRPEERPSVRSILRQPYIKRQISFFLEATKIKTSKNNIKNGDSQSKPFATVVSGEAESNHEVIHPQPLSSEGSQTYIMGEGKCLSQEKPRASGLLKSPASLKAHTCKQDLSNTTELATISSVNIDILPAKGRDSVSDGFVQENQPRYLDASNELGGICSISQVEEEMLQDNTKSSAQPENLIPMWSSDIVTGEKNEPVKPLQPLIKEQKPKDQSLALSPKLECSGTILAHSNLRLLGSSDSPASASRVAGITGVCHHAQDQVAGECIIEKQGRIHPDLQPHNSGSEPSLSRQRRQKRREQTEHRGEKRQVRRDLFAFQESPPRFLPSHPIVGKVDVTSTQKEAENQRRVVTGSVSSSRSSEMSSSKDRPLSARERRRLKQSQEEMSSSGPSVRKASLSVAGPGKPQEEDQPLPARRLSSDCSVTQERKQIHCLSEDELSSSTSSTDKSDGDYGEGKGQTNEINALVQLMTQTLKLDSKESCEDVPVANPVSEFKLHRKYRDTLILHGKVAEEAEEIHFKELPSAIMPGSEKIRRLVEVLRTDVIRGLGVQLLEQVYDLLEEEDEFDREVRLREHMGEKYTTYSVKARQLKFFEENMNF

Compound	KINOMEscan: EGFR [1]	KINOMEscan: PDGFRA [2]	KINOMEscan: NEK4 [3]	KINOMEscan: MST1R [4]
COc1cc(C(=O)N2CCC(N3CCN(C)CC3)CC2)ccc1Nc1ncc2c(n1)N(C1CCCC1)c1ccccc1C(=O)N2C [Compound 25, 11-cyclopentyl-2-((2-methoxy-4-(4-(4-methylpiperazin-1-yl)piperidine-1-carbonyl)phenyl)amino)-5-methyl-5H-benzo[e]pyrimido[5,4-b][1,4]diazepin-6(11H)-one]	89	100	97	100
CCOc1cc(C(=O)N2CCC(N3CCN(C)CC3)CC2)ccc1Nc1ncc2c(n1)N(C1CCCC1)c1ccccc1C(=O)N2C [Compound 26]	100	100	89	100
COc1cc(C(=O)N2CCC(N3CCN(C)CC3)CC2)ccc1Nc1ncc2c(n1)N1CCc3cccc(c31)C(=O)N2C [Compound 24]	74			
COc1cc(C(=O)N2CCC(N3CCN(C)CC3)CC2)ccc1Nc1ncc2c(n1)N(C)c1ccccc1C(=O)N2C [15 (LRRK2-IN-1)]	84	100	95	98
